One experiment addresses T1, human EHMT2 913-1193 (Homo sapiens, UniProt Q96KQ7).
T1 construct: recombinant purified human EHMT2 913-1193, Viva; purchased Viva
T1 sequence (Q96KQ7 913-1193): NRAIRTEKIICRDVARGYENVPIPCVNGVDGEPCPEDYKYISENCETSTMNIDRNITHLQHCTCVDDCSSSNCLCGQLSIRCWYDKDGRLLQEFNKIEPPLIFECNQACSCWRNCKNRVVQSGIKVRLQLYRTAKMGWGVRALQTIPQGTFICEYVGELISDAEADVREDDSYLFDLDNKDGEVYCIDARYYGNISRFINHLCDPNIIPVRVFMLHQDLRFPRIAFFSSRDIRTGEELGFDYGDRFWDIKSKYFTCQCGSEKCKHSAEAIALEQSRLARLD
Briefly: EHMT2 enzyme assay on histone peptide substrate (EHMT2 PEP). The class given is biochemical. Conditions: recombinant human EHMT2 913-1193, histone H3 1-15 peptide, balanced conditions; read-out: EHMT2 PEP (IC50 μM). The procedure, abridged: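 Compounds (10-point, 3-fold dilutions, top 50 μM final, 2% DMSO) preincubated 30 min with 0.031 nM EHMT2 in 20 mM Bicine pH 7.5, 0.002% Tween 20, 0.005% gelatin, 1 mM TCEP. Biotinylated histone peptide methylated with ^3H-SAM 60 min at room temperature. Quenched with unlabeled SAM; product captured on streptavidin Flashplate, scintillation counted.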

A further experiment deals with T2, EHMT1 (Homo sapiens, UniProt Q9H9B1).
T2 sequence (Q9H9B1 1-1298): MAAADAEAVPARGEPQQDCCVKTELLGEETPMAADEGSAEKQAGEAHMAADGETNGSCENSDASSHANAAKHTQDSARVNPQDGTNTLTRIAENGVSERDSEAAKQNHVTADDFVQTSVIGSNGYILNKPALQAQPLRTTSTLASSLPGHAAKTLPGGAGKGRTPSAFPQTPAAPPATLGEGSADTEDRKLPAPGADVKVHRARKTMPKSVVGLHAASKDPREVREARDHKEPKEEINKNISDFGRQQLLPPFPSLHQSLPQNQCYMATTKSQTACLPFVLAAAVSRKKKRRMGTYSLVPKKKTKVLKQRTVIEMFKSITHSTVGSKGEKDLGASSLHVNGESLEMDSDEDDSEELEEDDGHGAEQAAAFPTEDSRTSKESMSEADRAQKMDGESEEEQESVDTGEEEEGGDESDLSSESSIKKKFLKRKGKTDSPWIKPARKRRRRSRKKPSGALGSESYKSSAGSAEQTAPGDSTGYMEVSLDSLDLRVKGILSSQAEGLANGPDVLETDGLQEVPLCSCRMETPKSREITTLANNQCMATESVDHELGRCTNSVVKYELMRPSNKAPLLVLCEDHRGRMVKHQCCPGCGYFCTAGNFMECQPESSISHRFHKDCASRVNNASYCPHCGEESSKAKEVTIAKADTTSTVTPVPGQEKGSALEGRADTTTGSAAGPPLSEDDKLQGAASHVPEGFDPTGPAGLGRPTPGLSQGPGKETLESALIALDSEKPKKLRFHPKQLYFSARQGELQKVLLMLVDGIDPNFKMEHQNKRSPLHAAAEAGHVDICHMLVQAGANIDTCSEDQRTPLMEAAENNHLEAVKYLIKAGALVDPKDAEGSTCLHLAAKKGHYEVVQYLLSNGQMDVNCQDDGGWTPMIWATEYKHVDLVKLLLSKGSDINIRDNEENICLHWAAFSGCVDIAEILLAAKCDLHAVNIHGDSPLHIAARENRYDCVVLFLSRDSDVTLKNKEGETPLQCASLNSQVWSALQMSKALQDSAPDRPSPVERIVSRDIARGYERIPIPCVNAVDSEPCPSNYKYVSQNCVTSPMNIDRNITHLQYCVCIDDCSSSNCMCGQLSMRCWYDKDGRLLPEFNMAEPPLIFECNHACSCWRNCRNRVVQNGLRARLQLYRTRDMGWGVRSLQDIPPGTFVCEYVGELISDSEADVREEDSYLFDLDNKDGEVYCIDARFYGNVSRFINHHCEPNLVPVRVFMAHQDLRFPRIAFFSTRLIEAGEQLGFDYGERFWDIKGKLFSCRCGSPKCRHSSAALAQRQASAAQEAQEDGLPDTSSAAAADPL
The experiment can be described thus: EHMT1 enzyme assay on peptide substrate (EHMT1 PEP). The class given is biochemical. Conditions: read-out: EHMT1 PEP (IC50 μM).

What is called IC50 is the concentration needed to halve the response being measured. With `CNc1cc(C)nc(Nc2ccc(OC)c(OC[C@@H]3CCN(C4CC4)C3)c2)n1` (single isomer, unassigned) [Compound 481], the IC50 on human EHMT2 913-1193 and on EHMT1 was less than 0.1 µM throughout.
Turning to `CNc1cc(C)nc(Nc2ccc(OC)c(OC[C@H]3CCN(C4CC4)C3)c2)n1` (single isomer, unassigned) [Compound 482], the IC50 on human EHMT2 913-1193 and at EHMT1 was 0.1 to 1 µM throughout.
As to `CNc1ccnc(Nc2ccc(OC)c(OCCOC3CC3)c2)n1` [Compound 453, N^2-(3-(2-cyclopropoxyethoxy)-4-methoxyphenyl)-N^4-methylpyrimidine-2,4-diamine], the IC50 at human EHMT2 913-1193 and on EHMT1 was more than 10 µM throughout.
Consider `CNc1cc(C)nc(Nc2ccc(OC)c(OC3CCN(C)CC3)c2)n1` [Compound 455], for which the IC50 at human EHMT2 913-1193 and on EHMT1 was more than 10 µM throughout.
As for `CNc1cc(C)nc(Nc2ccc(OC)c(OCC3CCN(C4CCCC4)C3)c2)n1` (stereo not drawn) [Compound 456, N^2-(3-((1-cyclopentylpyrrolidin-3-yl)methoxy)-4-methoxyphenyl)-N^4,6-dimethylpyrimidine-2,4-diamine], the IC50 on human EHMT2 913-1193 and at EHMT1 was 1 to 10 µM each time.
Consider `CNc1cc(C)nc(Nc2ccc(OC)c(OCC3CCN(C4CC4)C3)c2)n1` (stereo not drawn) [Compound 457], for which the IC50 at human EHMT2 913-1193 and on EHMT1 was less than 0.1 µM throughout.
On to `CNc1cc(C2CCCC2)nc(Nc2ccc(OC)c(OCCCN3CCCC3)c2)n1` [Compound 458, 6-cyclopentyl-N^2-(4-methoxy-3-(3-(pyrrolidin-1-yl)propoxy)phenyl)-N^4-methylpyrimidine-2,4-diamine], for which the half-maximal inhibitory concentration (IC50) on human EHMT2 913-1193 and on EHMT1 was 0.1 to 1 µM throughout.
As for `CNc1cc(C2CCOCC2)nc(Nc2ccc(OC)c(OCCCN3CCCC3)c2)n1` [Compound 459, N^2-(4-methoxy-3-(3-(pyrrolidin-1-yl)propoxy)phenyl)-N^4-methyl-6-(tetrahydro-2H-pyran-4-yl)pyrimidine-2,4-diamine], the IC50 at human EHMT2 913-1193 and at EHMT1 was 1 to 10 µM each time.
In the case of `COc1cnc(Nc2nc(C)cc3[nH]ncc23)cc1OCCCN1CCCC1` [Compound 460, N-(5-methoxy-4-(3-(pyrrolidin-1-yl)propoxy)pyridine-2-yl)-6-methyl-1H-pyrazolo[4,3-c]pyridine-4-amine], the half-inhibitory concentration (IC50) at human EHMT2 913-1193 and on EHMT1 was less than 0.1 µM in each case.
Consider `CNc1cc(C)nc(Nc2ccc(OC)c(OCC3CCN(CCO)C3)c2)n1` (stereo not drawn) [Compound 461, 2-(3-((2-methoxy-5-((4-methyl-6-(methylamino)pyrimidin-2-yl)amino)phenoxy)methyl)pyrrolidin-1-yl)ethan-1-ol], for which the IC50 on human EHMT2 913-1193 and at EHMT1 was less than 0.1 µM in each case.
With `COc1ccc(Nc2nc(C)cc(NCC3CCOCC3)n2)cc1OCC1CCN(C2CC2)C1` (stereo not drawn) [Compound 462, N^2-(3-((1-cyclopropylpyrrolidin-3-yl)methoxy)-4-methoxyphenyl)-6-methyl-N^4-((tetrahydro-2H-pyran-4-yl)methyl)pyrimidine-2,4-diamine], the IC50 on human EHMT2 913-1193 and on EHMT1 was less than 0.1 µM in each case.
As for `CNc1cc(C)nc(Nc2ccc(OC)c(OCCCN(C)C3CC3)c2)n1` [Compound 463, N^2-(3-(3-(cyclopropyl(methyl)amino)propoxy)-4-methoxyphenyl)-N^4,6-dimethylpyrimidine-2,4-diamine], the IC50 at human EHMT2 913-1193 and at EHMT1 was less than 0.1 µM each time.
Regarding `COc1cnc(Nc2cc(NCC3CCOCC3)cc(C)n2)cc1OCCCN1CCCC1` [Compound 464, N^2-(5-methoxy-4-(3-(pyrrolidin-1-yl)propoxy)pyridin-2-yl)-6-methyl-N^4-((tetrahydro-2H-pyran-4-yl)methyl)pyridine-2,4-diamine], the half-maximal inhibitory concentration (IC50) on human EHMT2 913-1193 and on EHMT1 was 0.1 to 1 µM in each case.
Consider `CNc1cc(C)nc(Nc2ccc(OC)c(OCCCN3CC(O)C3)c2)n1` [Compound 465, 1-(3-(2-methoxy-5-((4-methyl-6-(methylamino)pyrimidin-2-yl)amino)phenoxy)propyl)azetidin-3-ol], for which the IC50 at human EHMT2 913-1193 and on EHMT1 was less than 0.1 µM throughout.
As to `CNc1cc(C)nc(Nc2ccc(OC)c(OC3CCN(C4CC4)CC3)c2)n1` [Compound 466, N^2-(3-((1-cyclopropylpiperidin-4-yl)oxy)-4-methoxyphenyl)-N^4,6-dimethylpyrimidine-2,4-diamine], the IC50 on human EHMT2 913-1193 and at EHMT1 was more than 10 µM each time.
`CNc1cc(C)nc(Nc2ccc(OC)c(OC[C@H]3C[C@@H](N(C)C)C3)c2)n1` [Compound 468]: the results for the IC50 at human EHMT2 913-1193 and on EHMT1 were 1 to 10 µM and 0.1 to 1 µM, respectively.
For `CNc1cc(C)nc(Nc2ccc(OC)c(OC[C@H]3C[C@H](N(C)C)C3)c2)n1` [Compound 470], in that order: more than 10 µM and 1 to 10 µM.
With `CCn1nc(Nc2nccc3[nH]ccc23)cc1COCCN1CCCC1` [Compound 471], the IC50 on human EHMT2 913-1193 and at EHMT1 was 1 to 10 µM each time.
Turning to `CNc1cc(Nc2cc(OC[C@@H]3CCN(C)C3)c(OC)cn2)nc(C)n1` [Compound 473], the 50% inhibitory concentration (IC50) at human EHMT2 913-1193 was in the range of 1 to 10 µM; at EHMT1 it was 0.1 to 1 µM.
With `CNc1cc(C)nc(Nc2cc(OC[C@@H]3CCN(C)C3)c(OC)cn2)c1` [Compound 475], the figures for the IC50 on human EHMT2 913-1193 and at EHMT1 were 0.1 to 1 µM and less than 0.1 µM, respectively.
On the same counts, the results for `CNc1ccnc(Nc2ccc(OC)c(OC[C@@H]3CN(C)C[C@@H]3C)c2)n1` [Compound 477] are 0.1 to 1 µM and 0.1 to 1 µM.
On the same counts, the results for `CNc1ccnc(Nc2ccc(OC)c(OCc3nnc(C4CC4)[nH]3)c2)n1` [Compound 478] are more than 10 µM and more than 10 µM.
On the same counts, the results for `CNc1ccnc(Nc2ccc(OC)c(OCc3ncn(C4CC4)n3)c2)n1` [Compound 480] are more than 10 µM and more than 10 µM.
For the compound `CNc1cc(C(C)C)nc(Nc2ccc(OC)c(OCCCN3CCCC3)c2)n1` [Compound 483], the IC50 at human EHMT2 913-1193 and on EHMT1 was less than 0.1 µM throughout.
Turning to `COc1cnc(Nc2nc(C)cc3[nH]c(C)cc23)cc1OCCCN1CCCC1` [Compound 485], the IC50 at human EHMT2 913-1193 and on EHMT1 was less than 0.1 µM each time.
As to `COc1ccc(Nc2nc(C)cc3[nH]ccc23)cc1OCCCN1CCCC1` [Compound 486], the IC50 at human EHMT2 913-1193 and at EHMT1 was more than 10 µM each time.
On to `CNc1cc(C)nc(Nc2ccc(OC)c([C@H]3C[C@@H]3CN(C)C)c2)n1` [Compound 487], for which the concentration for half-maximal inhibition (IC50) is 1 to 10 µM at human EHMT2 913-1193 and 0.1 to 1 µM at EHMT1.
`CNc1cc(C)nc(Nc2ccc(OC)c([C@H]3C[C@H]3CN(C)C)c2)n1` [Compound 488]: the results for the half-inhibitory concentration (IC50) on human EHMT2 913-1193 and on EHMT1 were 0.1 to 1 µM and less than 0.1 µM, respectively.
On the same counts, the results for `CNc1cc(C)nc(Nc2ccc(OC)c(OC(C#N)CCN3CCCC3)c2)n1` (stereo not drawn) [Compound 489] are 1 to 10 µM and 0.1 to 1 µM.
On the same counts, the results for `CNc1cc(C)nc(Nc2ccc(OC)c(OCCCN3CCC3)c2)n1` [Compound 490] are less than 0.1 µM and less than 0.1 µM.
On the same counts, the results for `CNc1cc(C)nc(Nc2ccc(OC)c(OC[C@@H]3CN(C)C[C@H]3O)c2)n1` [Compound 491] are 0.1 to 1 µM and less than 0.1 µM.
Consider `CNc1cc(C)nc(Nc2ccc(OC)c(OC[C@@H]3CN(C)C[C@@H]3O)c2)n1` [Compound 492], for which the IC50 at human EHMT2 913-1193 is 0.1 to 1 µM; at EHMT1, less than 0.1 µM.
On the same counts, the results for `COc1cnc(Nc2nc(C)cc3[nH]ccc23)cc1OCC1CCN(C2CC2)C1` (stereo not drawn) [Compound 494] are less than 0.1 µM and less than 0.1 µM.
